Data set [1] relates to rabbit RBCs. Put plainly: Streptolysin O-induced hemolysis on RBC agar plates. Type of data set: cell-based. To be noted: GML 10 μg/ml in agar, Group A Streptococci stabbed into agar. On the procedure:
GML (10 μg/ml) was incorporated into culture plates containing solid agar and rabbit RBCs suspended in the agar. The effect of GML on streptolysin O-induced hemolysis was tested by stabbing the Group A Streptococci into the agar so as to permit the anaerobic growth of the bacteria beneath the surface of the agar and thereby allow streptolysin O to function.

In data set [2] the test system is rabbit RBCs. Description: Streptolysin S-induced hemolysis on RBC agar plates. Type of data set: cell-based. To be noted: rabbit blood agar plates containing GML, surface culture of Group A Streptococci. As to the method:
The effect of GML on streptolysin S-induced hemolysis was assayed by direct culturing of Streptococci on the surface of the RBC-containing agar plates.

The next data set concerns HVECs. Type of data set: cell-based, human.
A further data set deals with HIV-1. Type of data set: cell-based.
[3] abbreviates: GML 20 μg/ml + SPEA 100 μg/ml, 6 hours.
[4] abbreviates: GML 20 μg/ml + TSST-1 100 μg/ml, 6 hours.

The values that follow come from patent publication US20050215634A1 (priority 2003, published 2005).

Where two headings read alike, the source gives them in different places.

As for `CCCCCCCCCCCC(=O)OCC(O)CO` (stereo not shown) [GML, glycerol monolaurate], the “Streptolysin O-induced hemolysis of RBCs” value in the data set with rabbit RBCs [1] was “completely prevented hemolysis”. Besides, the “Streptolysin S-induced hemolysis” value in the data set with rabbit RBCs [2] was “completely inhibited”. Further, in the data set on HVECs, the “IL-8 (pg/ml ± SE)” value is “None Detected” and the “MIP-3α (pg/ml ± SE)” value is on record as “None Detected”. Besides, in the data set with HVECs (setting [3]), the “IL-8 (pg/ml ± SE)” value is on record as “None Detected” and the “MIP-3α (pg/ml ± SE)” value was “None Detected”. Further, in the data set on HVECs (setting [4]), the “IL-8 (pg/ml ± SE)” value is given as “None Detected” and the “MIP-3α (pg/ml ± SE)” value was “None Detected”. In addition, the “Cells expressing HIV-1 p24” value in the data set with HIV-1 was “rare and no cells expressing p24”. Moreover, in the data set on human PBMC, the Cell viability result was “preserved” and the “Total number of cells versus control sample without GML” value is “significantly less”.
Turning to Ovalbumin [reference compound], in the data set with HVECs, the “IL-8 (pg/ml ± SE)” value stood at 36 ± 1.5 pg/mL and the “MIP-3α (pg/ml ± SE)” value worked out at 12 ± 1.8 pg/mL.
